From US10807970B2 (priority 2016, dated 2020)
Read-outs that look alike come from different tables or passages of the source.

Biological target: human σ1 receptor (Homo sapiens, UniProt Q99720)
Test: Human σ1 receptor radioligand assay ([3H](+)-pentazocine, transfected HEK-293 membranes)
Assay type: binding
Design: μ and σ1 dual binding: key to the marks not given beside the values
Settings: one class symbol for both Ki-σ1 (human σ1 receptor, A1) and Ki-μ (human μ-opioid receptor, A2)
Outline: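 Membranes from HEK-293 cells transfected with human σ1 receptor (7 μg) incubated with 5 nM [3H](+)-pentazocine in 50 mM Tris-HCl pH 8, 120 min at 37° C. Non-specific binding defined with 10 μM haloperidol. Bound radioligand separated by filtration, washed with ice-cold 10 mM Tris-HCl pH 7.4, and counted by scintillation.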

[1] = read-out: μ and σ1 dual binding

Sequence of human σ1 receptor (Q99720 whole entry): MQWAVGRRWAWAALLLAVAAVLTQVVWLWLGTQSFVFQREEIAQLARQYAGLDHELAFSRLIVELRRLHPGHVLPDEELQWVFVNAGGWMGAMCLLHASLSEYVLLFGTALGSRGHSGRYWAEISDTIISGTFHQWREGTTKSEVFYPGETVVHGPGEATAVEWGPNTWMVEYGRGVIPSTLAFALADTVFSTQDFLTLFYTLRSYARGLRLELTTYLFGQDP

SMILES | μ and σ1 dual binding | Ki [1] | also measured
CC(C)OCCN1CCC([C@]2(C(=O)c3ccccn3)CCOC(C)(C)C2)CC1 [Example 244, (S)-(4-(1-(2-isopropoxyethyl)piperidin-4-yl)-2,2-dimethyltetrahydro-2H-pyran-4-yl)(pyridin-2-yl)methanone] | ++ |  | 
CC(C)OCCN1CCC([C@@]2(C(=O)c3ccccn3)CCOC(C)(C)C2)CC1 [Example 245, (R)-(4-(1-(2-isopropoxyethyl)piperidin-4-yl)-2,2-dimethyltetrahydro-2H-pyran-4-yl)(pyridin-2-yl)methanone] | ++ |  | 
CC(C)CCN1CCN([C@]2(C(=O)c3ccccn3)CCO[C@H](C)C2)CC1 [Example 246, ((2R,4R)-4-(4-isopentylpiperazin-1-yl)-2-methyltetrahydro-2H-pyran-4-yl)(pyridin-2-yl)methanone] |  | < 500 nM | 
CC(C)CCN1CCN([C@@]2(C(=O)c3ccccn3)CCO[C@@H](C)C2)CC1 [Example 247, ((2S,4S)-4-(4-isopentylpiperazin-1-yl)-2-methyltetrahydro-2H-pyran-4-yl)(pyridin-2-yl)methanone] | ++ |  | 
CC(C)OCCN1CCC([C@@]2(C(=O)c3ccccn3)CCO[C@@H](C)C2)CC1 [Example 248, ((2S,4R)-4-(1-(2-isopropoxyethyl)piperidin-4-yl)-2-methyltetrahydro-2H-pyran-4-yl)(pyridin-2-yl)methanone] |  |  | Ki (μ and σ1 dual binding): < 500 nM
CC(C)OCCN1CCC([C@]2(C(=O)c3ccccn3)CCO[C@H](C)C2)CC1 [Example 249, ((2R,4S)-4-(1-(2-isopropoxyethyl)piperidin-4-yl)-2-methyltetrahydro-2H-pyran-4-yl)(pyridin-2-yl)methanone] | ++ |  | 
CC[C@@]1(N2CCN(Cc3ccc(C#N)cc3)CC2)CCO[C@@H](C)C1 [Example 250, 4-((4-((2S,4R)-4-ethyl-2-methyltetrahydro-2H-pyran-4-yl)piperazin-1-yl)methyl)benzonitrile] |  | > 500 nM | 
CC[C@]1(N2CCN(Cc3ccc(C#N)cc3)CC2)CCO[C@H](C)C1 [Example 251, 4-((4-((2R,4S)-4-ethyl-2-methyltetrahydro-2H-pyran-4-yl)piperazin-1-yl)methyl)benzonitrile] |  | > 500 nM | 
